Source: patent US6846674B2, “Genetically modified fibroblast cells” (Deutsche Krebsforschungszentrum Stiftung des Offentlichen …, priority 2000, dated 2005)
Entries after “also recorded” stand apart in the source; their conditions may differ.

Assays:
[1] = test system: primary human keratinocytes; experiment: 2D coculture of c-jun −/− c-JunER™ fibroblasts with primary human keratinocytes; type: cell-based; conditions: 100 nM every 12 hours, three days, immunofluorescence
Text: The corresponding controls remained untreated.

[2] = test system: keratinocytes (epithelial formation and differentiation); experiment: organotypical cultures with c-jun −/− fibroblasts, application of cytokines; type: cell-based, human; conditions: for phenotype obtained in organotypical cultures with c-jun −/−: FIG. 6
Procedure: Type 1 collagen was prepared from rat tail tendons and provided at a concentration of 4 mg/ml in 0.1% acetic acid as rdady-to-use solution (Smola et al., 1993). The collagen gels used consisted of 80% by volume of 4 mg/ml collagen in 0.1% acetic acid, 10% by volume Hank's salt solution (concentrated tenfold) and 10% by volume FCS with or without cells (2×10^5 cells/ml). The liquid collagen was admixed with Hank's solution on ice and neutralized with 5 M NaOH with stirring (trypsinated cells taken up in FCS can then be added to the collagen solution by stirring). The gel solution was poured into cell culture dishes or 2.5 ml each into filter inserts (3 μm pore size, Becton Dickinson, Heidelberg, Germany) and allowed to stay in an incubator to form a gel for 1 hour. Sterile glass rings having an internal diameter of 18 mm (1.5 mm wall thickness, 12 mm height) were placed onto the gels and slightly pressed thereon. Following 1 h in the incubator, the collagen gels were equilibrated in DMEM with 10% FCS. After 24 h, the medium was withdrawn from the glass rings and 1 ml keratinocyte suspension (9×10^5 cells/ml FAD) each were seeded into the glass ring interior. After 24 h of incubation, the medium was removed from the keratinocytes so as to expose the cells to air. This time was defined as day 0 of the organotypcial cultures. DMEM having 10% FCS was exchanged every other day, the medium level in this case bordering on the top gel rim. For histological or immunohistochemical processing, the cultures were fixed or frozen. In order to detect proliferating cells in a culture by immunohistochemical methods, the cultures BrdU (Sigma) were added to the medium at a concentration of 65 μM 12 h prior to fixing.
2D cocultures on plastic dishes or glass slides or in 3D form as organotypical cultures were incubated in corresponding standard medium for 24 h. Thereafter, medium enriched with cytokines was added and the cultures were incubated therewith depending on the experiment for several hours or days, the medium being changed with factor added every other day. Supplier of the growth factors and antibodies: KGF (BTS, St. Leon, Germany); anti-GM-CSF, polyclonal, neutralizing (R&D-Systems, Wiesbaden, Germany); GM-CSF (Boehringer Mannheim, Germany) and anti-KGF, monoclonal, neutralizing (R&D-Systems).
In the case of monolayer cultures of adherent cells, the medium was withdrawn from the cells and the cells were fixed on the glass slides in 80% methanol for 5 min. and 100% acetone for 3 min. The slides were then dried and stored at −40° C. For the production of paraffin preparations, organotypical cocultures or skin biopsies wee fixed in 3.5% formaldehyde (in PBS+) for at least 24 h, and initially embedded in agar and then in paraffin (Medim, Vogel company, GieβSen, Germany). The preparations were cut into 2 μm sections which were stained histologically with hematoxylin (15 min.) and eosin (5 min.). Following deparaffinization it was also possible to use the paraffin sections for immunohistochemical analyses. For the production of frozen preparations, skin samples or organotypical cocultures were frozen on cork platelets in embedding gel (“Tissue Teck”, O.C.T., Frankfurt, Germany) on liquid nitrogen. The preparations were stored at −80° C. 5-μm sections were prepared using a freezing microtome, placed onto silanized slides and used for immunohistochemical analyses.
Paraffin sections were deparaffinized in a descending alcohol series and rinsed in PBS. Thereafter, the epitopes on the tissue sections were made accessible by boiling the sections in “Tuf” solution for 5 min. (Advanced Biotechnologies, Hamburg, Germany) and 0.1% trypsin at 37° C. or microwave treatment in 0.1 M citrate buffer for 30 min. Freeze sections were fixed in 80% methanol for 5 min., then in acetone for 2 min. For detecting the incorporation of BrdU (proliferation assay), the sections were incubated in 1.5 M HCI for 10 min. to denature the DNA strands. […]

CC/C(=C(\c1ccc(O)cc1)c1ccc(OCCN(C)C)cc1)c1ccccc1 [4-OH-tamoxifen]
enhanced expression of the differentiation marker K1/K10 [1]: can be eliminated again

GM-CSF: cytokine GM-CSF (Boehringer Mannheim, Germany)
phenotype obtained in organotypical cultures with c-jun −/− [2]: can partially be reversed
K1/K10 expression ([2]; c-jun −/− fibroblasts): expressed late
differentiation status of the epithelium ([2]; c-jun −/− fibroblasts): does not correspond to the normal condition
epithelial formation ([2]; c-jun −/− fibroblasts): eliminates the reduced epithelial formation; also recorded: effects an enhanced epithelial formation
loricrin expression (timing) ([2]; c-jun −/− fibroblasts): expressed prematurely
transglutaminase, filaggrin and loricrin expression ([2]; c-jun −/− fibroblasts): expressed enhancedly

B1: KGF: cytokine / growth factor KGF (BTS, St. Leon, Germany) (protein, UniProt P21781 32-194, looked up)
Fibroblast growth factor 7: CNDMTPEQMATNVNCSSPERHTRSYDYMEGGDIRVRRLFCRTQWYLRIDKRGKVKGTQEMKNNYNIMEIRTVAVGIVAIKGVESEFYLAMNKEGKLYAKKECNEDCNFKELILENHYNTYASAKWTHNGGEMFVALNQKGIPVRGKKTKKEQKTAHFLPMAIT
phenotype obtained in organotypical cultures with c-jun −/− [2]: can partially be reversed
differentiation status of the epithelium ([2]; c-jun −/− fibroblasts): the full differentiation status is not restored
epithelial formation ([2]; c-jun −/− fibroblasts): eliminates the reduced epithelial formation
granular layer and expression of the differentiation markers filaggrin and loricrin ([2]; c-jun −/− fibroblasts, histology): lack
